Assay results published in patent publication US12497408B2, “Tetracyclic compounds and methods for the treatment of Zika virus infection” (priority 2021, dated 2025).

system: ZIKV; test: ZIKV reporter virus-based antiviral screening on Huh7 cells; format: cell-based, Zika virus; settings: Huh7 cells infected with recombinant luciferase reporter ZIKV (MOI about 0.1), 48 hrs, luciferase signal; read-out: EC50
In short: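 Huh7 cells in 2% FBS assay medium infected at MOI about 0.1 with Renilla or Nano luciferase ZIKV premixed with nine-point compound dilutions, 48 hrs at 37° C. Luciferase signal normalized to DMSO controls as 100%; viability optionally by CellTiter-Glo with Rlu virus.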

Q: How did the EC50 turn out when `COC(=O)N[C@H](C(=O)N1C[C@@H](F)C[C@H]1c1nc(Cl)c(-c2cc3c4c(c2)OCc2cc(-c5[nH]c([C@@H]6C[C@H](F)CN6C(=O)[C@@H](NC(=O)OC)C(C)(C)C(F)(F)F)nc5Cl)cc(c2-4)OC3)[nH]1)C(C)(C)C(F)(F)F` [Compound 52, dimethyl ((2S,2′S)-((3S,3′S,5S,5′S)-((5,10-dihydrochromeno[5,4,3-cde]chromene-2,7-diyl)bis(4-chloro-1H-imidazole-5,2-diyl))bis(3-fluoropyrrolidine-5,1-diyl))bis(4,4,4-trifluoro-3,3-dimethyl-1-oxobutane-l,2-diyl))dicarbamate] was run?
A: 103 nM

same assay, conditions: Zika virus, Huh-7, 48 h, Huh7 cells infected with recombinant luciferase reporter ZIKV (MOI about 0.1), luciferase signal

Q: Which EC50 does the source give for `COC(=O)N[C@H](C(=O)N1C[C@@H](C)C[C@H]1c1nc(Cl)c(-c2cc3c4c(c2)OCc2cc(-c5[nH]c([C@@H]6C[C@H](C)CN6C(=O)[C@@H](NC(=O)OC)C(C)C)nc5Cl)cc(c2-4)OC3)[nH]1)C(C)C` [Compound 48, dimethyl ((2S,2′S)-((3S,3′S,5S,5′S)-((5,10-dihydrochromeno[5,4,3-cde]chromene-2,7-diyl)bis(4-chloro-1H-imidazole-5,2-diyl))bis(3-methylpyrrolidine-5,1-diyl))bis(3-methyl-1-oxobutane-1,2-diyl))dicarbamate] here?
A: 4.6 nM

Q: With `COC[C@H]1CC[C@@H](c2nc(Cl)c(-c3cc4c5c(c3)OCc3cc(-c6[nH]c([C@@H]7CC[C@H](COC)N7C(=O)[C@@H](NC(=O)OC)C(C)C)nc6Cl)cc(c3-5)OC4)[nH]2)N1C(=O)[C@@H](NC(=O)OC)C(C)C` [Compound 49, dimethyl ((2S,2′S)-((2R,2′R,5S,5′S)-((5,10-dihydrochromeno[5,4,3-cde]chromene-2,7-diyl)bis(4-chloro-1H-imidazole-5,2-diyl))bis(2-(methoxymethyl)pyrrolidine-5,1-diyl))bis(3-methyl-1-oxobutane-1,2-diyl))dicarbamate] as the molecule, how does the EC50 read?
A: 1.9 nM

Q: How did the EC50 turn out when `COC(=O)N[C@H](C(=O)N1C[C@@H](F)C[C@H]1c1nc(Cl)c(-c2cc3c4c(c2)OCc2cc(-c5[nH]c([C@@H]6C[C@H](F)CN6C(=O)[C@@H](NC(=O)OC)C(C)C)nc5Cl)cc(c2-4)OC3)[nH]1)C(C)C` [Compound 50, dimethyl ((2S,2′S)-((3S,3′S,5S,5′S)-((5,10-dihydrochromeno[5,4,3-cde]chromene-2,7-diyl)bis(4-chloro-1H-imidazole-5,2-diyl))bis(3-fluoropyrrolidine-5,1-diyl))bis(3-methyl-1-oxobutane-1,2-diyl))dicarbamate] was run?
A: 240 nM

Q: Which EC50 does the source give for `CC[C@H](C)[C@H](NC(=O)OC)C(=O)N1C[C@@H](F)C[C@H]1c1nc(Cl)c(-c2cc3c4c(c2)OCc2cc(-c5[nH]c([C@@H]6C[C@H](F)CN6C(=O)[C@@H](NC(=O)OC)[C@@H](C)CC)nc5Cl)cc(c2-4)OC3)[nH]1` [Compound 51, dimethyl ((2S,2′S,3S,3′S)-((3S,3′S,5S,5′S)-((5,10-dihydrochromeno[5,4,3-cde]chromene-2,7-diyl)bis(4-chloro-1H-imidazole-5,2-diyl))bis(3-fluoropyrrolidine-5,1-diyl))bis(3-methyl-1-oxopentane-1,2-diyl))dicarbamate] here?
A: 98.8 nM

Q: With `COC(=O)N[C@H](C(=O)N1C[C@H](F)C[C@H]1c1nc(Cl)c(-c2cc3c4c(c2)OCc2cc(-c5[nH]c([C@@H]6C[C@@H](F)CN6C(=O)[C@@H](NC(=O)OC)C(C)C)nc5Cl)cc(c2-4)OC3)[nH]1)C(C)C` [Compound 53, dimethyl ((2S,2′S)-((3R,3′R,5S,5′S)-((5,10-dihydrochromeno[5,4,3-cde]chromene-2,7-diyl)bis(4-chloro-1H-imidazole-5,2-diyl))bis(3-fluoropyrrolidine-5,1-diyl))bis(3-methyl-1-oxobutane-1,2-diyl))dicarbamate] as the molecule, how does the EC50 read?
A: 7.3 nM

Q: With `CC[C@H](C)[C@H](NC(=O)OC)C(=O)N1C[C@H](F)C[C@H]1c1nc(Cl)c(-c2cc3c4c(c2)OCc2cc(-c5[nH]c([C@@H]6C[C@@H](F)CN6C(=O)[C@@H](NC(=O)OC)[C@@H](C)CC)nc5Cl)cc(c2-4)OC3)[nH]1` [Compound 54, dimethyl ((2S,2′S,3S,3′S)-((3R,3′R,5S,5′S)-((5,10-dihydrochromeno[5,4,3-cde]chromene-2,7-diyl)bis(4-chloro-1H-imidazole-5,2-diyl))bis(3-fluoropyrrolidine-5,1-diyl))bis(3-methyl-1-oxopentane-1,2-diyl))dicarbamate] as the molecule, how does the EC50 read?
A: 8 nM

Q: `COC(=O)N[C@H](C(=O)N1C[C@H](F)C[C@H]1c1nc(Cl)c(-c2cc3c4c(c2)OCc2cc(-c5[nH]c([C@@H]6C[C@@H](F)CN6C(=O)[C@@H](NC(=O)OC)C(C)(C)C(F)(F)F)nc5Cl)cc(c2-4)OC3)[nH]1)C(C)(C)C(F)(F)F` [Compound 55, dimethyl ((2S,2′S)-((3R,3′R,5S,5′S)-((5,10-dihydrochromeno[5,4,3-cde]chromene-2,7-diyl)bis(4-chloro-1H-imidazole-5,2-diyl))bis(3-fluoropyrrolidine-5,1-diyl))bis(4,4,4-trifluoro-3,3-dimethyl-1-oxobutane-1,2-diyl))dicarbamate] was tested. Which EC50 did it give?
A: 4.7 nM

Q: With `COC(=O)N[C@H](C(=O)N1CC(F)(F)C[C@H]1c1nc(Cl)c(-c2cc3c4c(c2)OCc2cc(-c5[nH]c([C@@H]6CC(F)(F)CN6C(=O)[C@@H](NC(=O)OC)C(C)C)nc5Cl)cc(c2-4)OC3)[nH]1)C(C)C` [Compound 56, dimethyl ((2S,2′S)-((5S,5′S)-((5,10-dihydrochromeno[5,4,3-cde]chromene-2,7-diyl)bis(4-chloro-1H-imidazole-5,2-diyl))bis(3,3-difluoropyrrolidine-5,1-diyl))bis(3-methyl-1-oxobutane-1,2-diyl))dicarbamate] as the molecule, how does the EC50 read?
A: 3.8 nM

Q: With `CC[C@H](C)[C@H](NC(=O)OC)C(=O)N1CC(F)(F)C[C@H]1c1nc(Cl)c(-c2cc3c4c(c2)OCc2cc(-c5[nH]c([C@@H]6CC(F)(F)CN6C(=O)[C@@H](NC(=O)OC)[C@@H](C)CC)nc5Cl)cc(c2-4)OC3)[nH]1` [Compound 57, dimethyl ((2S,2′S,3S,3′S)-((5S,5′S)-((5,10-dihydrochromeno[5,4,3-cde]chromene-2,7-diyl)bis(4-chloro-1H-imidazole-5,2-diyl))bis(3,3-difluoropyrrolidine-5,1-diyl))bis(3-methyl-1-oxopentane-1,2-diyl))dicarbamate] as the molecule, how does the EC50 read?
A: 4.6 nM

Q: `COC(=O)N[C@H](C(=O)N1CC(F)(F)C[C@H]1c1nc(Cl)c(-c2cc3c4c(c2)OCc2cc(-c5[nH]c([C@@H]6CC(F)(F)CN6C(=O)[C@@H](NC(=O)OC)C(C)(C)C(F)(F)F)nc5Cl)cc(c2-4)OC3)[nH]1)C(C)(C)C(F)(F)F` [Compound 58, dimethyl ((2S,2′S)-((5S,5′S)-((5,10-dihydrochromeno[5,4,3-cde]chromene-2,7-diyl)bis(4-chloro-1H-imidazole-5,2-diyl))bis(3,3-difluoropyrrolidine-5,1-diyl))bis(4,4,4-trifluoro-3,3-dimethyl-1-oxobutane-1,2-diyl))dicarbamate] was tested. Which EC50 did it give?
A: 11 nM

Q: `COC(=O)N[C@H](C(=O)N1CC2(CC2)C[C@H]1c1nc(Cl)c(-c2cc3c4c(c2)OCc2cc(-c5[nH]c([C@@H]6CC7(CC7)CN6C(=O)[C@@H](NC(=O)OC)C(C)C)nc5Cl)cc(c2-4)OC3)[nH]1)C(C)C` [Compound 59, dimethyl ((2S,2′S)-((6S,6′S)-((5,10-dihydrochromeno[5,4,3-cde]chromene-2,7-diyl)bis(4-chloro-1H-imidazole-5,2-diyl))bis(5-azaspiro[2.4]heptane-6,5-diyl))bis(3-methyl-1-oxobutane-1,2-diyl))dicarbamate] was tested. Which EC50 did it give?
A: 1.5 nM
